Laboratory results as given in ChEMBL document CHEMBL5625202, “Synthesis, characterization and anti-breast cancer activities of stachydrine derivatives” (Eur J Med Chem, 2023).
Calls of active or inactive are those of the source. No cut-off for these calls is given here.

Tests used:
[1] = Toxicity in BALB/c mouse implanted with mouse 4T1 cells assessed as increase in white blood cells at 0.2 mmol/Kg, po administered once every day for 14 days by routine blood analysis; format: organism-based; settings: in vivo, 336 h, time 14 day
[2] = Tmax in Sprague-Dawley rat plasma at 10 mg/kg, iv measured upto 6 hrs by LC-MS/MS analysis; format: ADME, organism-based
[3] = AUC (0 to t) in Sprague-Dawley rat plasma at 10 mg/kg, iv measured upto 6 hrs by LC-MS/MS analysis; format: ADME, organism-based
[4] = Toxicity in BALB/c mouse implanted with mouse 4T1 cells assessed as increase in neutrophil granulocytes at 0.2 mmol/Kg, po administered once every day for 14 days by routine blood analysis; format: organism-based; settings: in vivo, 336 h, time 14 day
[5] = Toxicity in BALB/c mouse implanted with mouse 4T1 cells assessed as increase in AST level at 0.2 mmol/Kg, po administered once every day for 14 days by routine blood analysis; format: organism-based; settings: in vivo, 336 h, time 14 day
4T1 [6] = assay: Anticancer activity against mouse 4T1 cells assessed as inhibition of cell growth incubated for 24 hrs by CCK-8 assay; format: functional, cell-based; settings: 4T1, 24 h
4T1 [7] = assay: Induction of apoptosis in mouse 4T1 cells assessed as increase in cleaved caspase-3 expression at 5 mM incubated for 24 hrs by Western blot analysis; format: functional, cell-based
[8] = Toxicity in BALB/c mouse implanted with mouse 4T1 cells assessed as change in kidney histopathology at 0.2 mmol/Kg, po administered once every day for 14 days; format: organism-based; settings: in vivo, 336 h, time 14 day
4T1 [9] = assay: Antitumor activity against mouse 4T1 cells implanted in BALB/c mouse assessed as tumor cell shrinkage at 0.2 mmol/Kg, po administered once every day for 14 days by histological staining based analysis; format: functional, organism-based; settings: time 14.0 day
4T1 [10] = assay: Antitumor activity against mouse 4T1 cells implanted in BALB/c mouse assessed as tumor cell necrosis at 0.2 mmol/Kg, po administered once every day for 14 days by histological staining based analysis; format: functional, organism-based; settings: time 14.0 day
[11] = Toxicity in BALB/c mouse implanted with mouse 4T1 cells assessed as increase in splenic red pulp at 0.2 mmol/Kg, po administered once every day for 14 days; format: organism-based; settings: in vivo, 336 h, time 14 day
4T1 [12] = assay: Antitumor activity against mouse 4T1 cells implanted in BALB/c mouse assessed as change in tumor weight at 0.2 mmol/Kg, po administered once every day for 14 days; format: functional, organism-based; settings: time 14.0 day
4T1 [13] = assay: Induction of apoptosis in mouse 4T1 cells assessed as apoptotic rate at 2500 micromol/L incubated for 24 hrs by Annexin-V/PI staining based flow cytometry relative to control; format: functional; settings: dose 2500 µmol/L, at 2500 µM
[14] = Toxicity in BALB/c mouse implanted with mouse 4T1 cells assessed as effect on BUN level at 0.2 mmol/Kg, po administered once every day for 14 days by routine blood analysis; format: organism-based; settings: in vivo, 336 h, time 14 day
[15] = Toxicity in BALB/c mouse implanted with mouse 4T1 cells assessed as splenic edema at 0.2 mmol/Kg, po administered once every day for 14 days; format: organism-based; settings: in vivo, 336 h, time 14 day
4T1 [16] = assay: Induction of apoptosis in mouse 4T1 cells assessed as increase in pro-caspase-3 expression at 5 mM incubated for 24 hrs by Western blot analysis; format: functional, cell-based
[17] = Toxicity in BALB/c mouse implanted with mouse 4T1 cells assessed as body weight loss at 0.2 mmol/Kg, po administered once daily for 14 days; format: organism-based; settings: in vivo, 336 h, time 14 day
4T1 [18] = assay: Inhibition of cell migration in mouse 4T1 cells assessed as reduction in wound healing incubated for 24 hrs by microscopic analysis; format: functional, cell-based
4T1 [19] = assay: Antitumor activity against mouse 4T1 cells implanted in BALB/c mouse assessed as tumor growth inhibition at 0.2 mmol/Kg, po administered once every day for 14 days relative to control; format: functional; settings: 4T1, 336 h, time 14 day, read-out: TGI
[20] = Toxicity in BALB/c mouse implanted with mouse 4T1 cells assessed as effect on CREA level at 0.2 mmol/Kg, po administered once every day for 14 days by routine blood analysis; format: organism-based; settings: in vivo, 336 h, time 14 day
[21] = Toxicity in BALB/c mouse implanted with mouse 4T1 cells assessed as change in heart histopathology at 0.2 mmol/Kg, po administered once every day for 14 days; format: organism-based; settings: in vivo, 336 h, time 14 day
[22] = Toxicity in BALB/c mouse implanted with mouse 4T1 cells assessed as increase in ALT level at 0.2 mmol/Kg, po administered once every day for 14 days by routine blood analysis; format: organism-based; settings: in vivo, 336 h, time 14 day
[23] = Toxicity in BALB/c mouse implanted with mouse 4T1 cells assessed as reduction in spleen index at 0.2 mmol/Kg, po administered once every day for 14 days relative to control; format: organism-based; settings: in vivo, 336 h, time 14 day
[24] = Toxicity in BALB/c mouse implanted with mouse 4T1 cells assessed as change in liver histopathology at 0.2 mmol/Kg, po administered once every day for 14 days; format: organism-based; settings: in vivo, 336 h, time 14 day
[25] = Toxicity in BALB/c mouse implanted with mouse 4T1 cells assessed as increase in monocytes at 0.2 mmol/Kg, po administered once every day for 14 days by routine blood analysis; format: organism-based; settings: in vivo, 336 h, time 14 day
[26] = Toxicity in BALB/c mouse implanted with mouse 4T1 cells assessed as change in lung histopathology at 0.2 mmol/Kg, po administered once every day for 14 days; format: organism-based; settings: in vivo, 336 h, time 14 day
[27] = Toxicity in BALB/c mouse implanted with mouse 4T1 cells assessed as increase in lymphocytes at 0.2 mmol/Kg, po administered once every day for 14 days by routine blood analysis; format: organism-based; settings: in vivo, 336 h, time 14 day
4T1 [28] = assay: Induction of apoptosis in mouse 4T1 cells assessed as apoptotic rate at 10000 micromol/L incubated for 24 hrs by Annexin-V/PI staining based flow cytometry relative to control; format: functional; settings: dose 10000 µmol/L, at 10000 µM
[29] = Stability of the compound in Sprague-Dawley rat plasma at 10 mg/kg, po measured after 6 hrs by LC-MS/MS analysis; format: ADME, organism-based; settings: in vivo
4T1 [30] = assay: Induction of apoptosis in mouse 4T1 cells assessed as decrease in Bcl-2 expression at 5 mM incubated for 24 hrs by Western blot analysis; format: functional, cell-based
[31] = Cmax in Sprague-Dawley rat plasma at 10 mg/kg, iv measured upto 6 hrs by LC-MS/MS analysis; format: ADME, organism-based
4T1 [32] = assay: Induction of mitochondrial membrane potential loss in mouse 4T1 cells assessed as green fluorescence at 5000 uM incubated for 24 hrs by JC-1 staining based flow cytometric analysis (reference value: 11.7%); format: cell-based
4T1 [33] = assay: Induction of mitochondrial membrane potential loss in mouse 4T1 cells assessed as red fluorescence at 5000 uM incubated for 24 hrs by JC-1 staining based flow cytometric analysis (Rvb= 87.9%); format: cell-based
[34] = Half life in Sprague-Dawley rat plasma at 10 mg/kg, iv measured upto 6 hrs by LC-MS/MS analysis; format: ADME, organism-based
4T1 [35] = assay: Induction of apoptosis in mouse 4T1 cells assessed as apoptotic rate at 5000 micromol/L incubated for 24 hrs by Annexin-V/PI staining based flow cytometry relative to control; format: functional; settings: dose 5000 µmol/L, at 5000 µM
4T1 [36] = assay: Induction of apoptosis in mouse 4T1 cells assessed as increase in Bax expression at 5 mM incubated for 24 hrs by Western blot analysis; format: functional, cell-based
[37] = Toxicity in BALB/c mouse implanted with mouse 4T1 cells assessed as blurred spleen morphology at 0.2 mmol/Kg, po administered once every day for 14 days; format: organism-based; settings: in vivo, 336 h, time 14 day
[38] = Oral bioavailability in Sprague-Dawley rat at 10 mg/kg measured upto 6 hrs by LC-MS/MS analysis; format: ADME, organism-based; settings: in vivo

- Tmax [2]: 1.02 min
- AUC(0-t) at 6 h [3]: 18500 ng·h/mL
- IC50 (4T1 [6]): 39 mM
- Stability [29]: Unstable
- Cmax [31]: 94.6 µg/mL
- half-life [34]: 69.6 min
- bioavailability [38]: 100%
SMILES: C[N+]1(C)CCCC1C(=O)[O-] (stereo not drawn)
- Activity [1]: Toxic
- Activity [4]: Toxic
- Activity [5]: Toxic
- Activity (4T1 [7]): inactive
- Activity [8]: Non-Toxic
- Activity (4T1 [9]): Active
- Activity (4T1 [10]): Active
- Activity [11]: Toxic
- Activity (4T1 [12]): Active
- Activity (4T1 [13]): 20.38%
- Activity [14]: Non-Toxic
- Activity [15]: Toxic
- Activity (4T1 [16]): inactive
- Activity [17]: Toxic
- inhibition (4T1 [18]): Dose-Dependent Effect
- inhibition in vivo at 200 µmol/kg (4T1 [19]): 3.89%
- Activity [20]: Non-Toxic
- Activity [21]: Non-Toxic
- Activity [22]: Toxic
- Activity [23]: Toxic
- Activity [24]: Non-Toxic
- Activity [25]: Toxic
- Activity [26]: Non-Toxic
- Activity [27]: Toxic
- Activity (4T1 [28]): 32.47%
- Activity (4T1 [30]): Active
- Activity (4T1 [32]): 29.6%
- Activity (4T1 [33]): 70.4%
- Activity (4T1 [35]): 28.09%
- Activity (4T1 [36]): Active
- Activity [37]: Toxic
